Assay results published in patent US9663478B2, “Benzotriazine oxides as drugs targeting Mycobacterium tuberculosis” (priority 2011, dated 2017).
In brackets after ≈: the same amount, converted by molar mass. Like-named read-outs stand apart in the source and are kept apart here.

Tests used:
[1] = MP MTT % viable (Table E1); settings: MP (so in the source)
OFX-R = assay: MIC OFX-R (Table E1); type: cell-based
RMP-R = assay: MIC RMP-R (Table E1); type: cell-based
INH-r = assay: MIC INH-r (Table E1); type: cell-based
H37Rv = assay: MIC H37Rv (Table E1, Additional BTO Activity Data); type: cell-based; settings: Mycobacterium tuberculosis
Mtb H37Rv [2] = assay: TB MIC - SRI, resazurin-based microplate assay; type: cell-based, Mycobacterium tuberculosis; settings: for MIC: Mycobacterium tuberculosis, H37RV, Tables 1-4 and text, read-out: TB MIC - SRI
[3] = tested on: Enterococcus fecalis ATCC 51575; assay: Spectrum of antimicrobial activity; type: cell-based
[4] = tested on: Moraxella catarrhalis ATCC 25238; assay: Spectrum of antimicrobial activity; type: cell-based
[5] = tested on: Mycobacterium abscessus ATCC 19977; assay: Spectrum of antimicrobial activity; type: cell-based
[6] = Plasma pharmacokinetics in female mice after oral administration; type: in vivo, mouse; settings: 100 mg/kg
Procedure: In order to validate BTOs as a new lead series for the treatment of TB, we also evaluated their systemic exposure in the mouse after oral administration. A single dose (100 mg/kg) of 8a and 20q were administered to mice in order to profile the pharmacokinetics for the BTOs (Table 7). […] The elimination half-life was for each compound was shorter than our ideal target values, but the Tmax values indicate that they are rapidly absorbed after oral administration (FIGURE).
All pharmacokinetic studies were performed in accordance with SRI International's animal care policies in an AAALAC and OLAW accredited facility. The procedure for the pharmacokinetics studies followed a previously described method.^55 Briefly, the plasma pharmacokinetics of selected BTO derivatives were determined in female CD1 mice after administration of a single dose (100 mg/kg) by oral gavage. Blood was collected from three mice per time point at 5, 15, 30, and 60 min and 2, 4, 6, 8, and 24 h after dose administration. Means and standard deviations were calculated for the plasma drug concentrations at each time point. Pharmacokinetic analysis was performed using non compartmental methods (WinNonlin® Professional, Version 5.2, Pharsight Corp, Mountain View, Calif.). The following parameters were calculated: time to maximum plasma concentration (Tmax), maximum plasma concentration (Cmax), maximum plasma concentration extrapoloated to time 0 (C0), area under the plasma concentration-time curve to the last time point (AUClast) and to infinity (AUCinf).

NRP Mtb H37Rv cells = assay: Low-oxygen recovery assay (LORA) MIC; type: cell-based, Mycobacterium tuberculosis; settings: Mycobacterium tuberculosis, H37RV, read-out: LORA MIC - ITR
[7] = tested on: Salmonella choleraesuis ATCC 13311; assay: Spectrum of antimicrobial activity; type: cell-based
[8] = tested on: Klebsiella pneumoniae ATCC 700721; assay: Spectrum of antimicrobial activity; type: cell-based
[9] = tested on: Enterococcus fecalis ATCC 29212; assay: Spectrum of antimicrobial activity; type: cell-based
[10] = Solubility, shake-flask method; type: physicochemical; settings: 0.9% saline solution at pH 7.4, triplicate
Procedure: The solubility of these two compounds was measured in triplicate using the shake-flask method in a 0.9% saline solution at pH 7.4. Both 8a and 20q had acceptable solubilities of 1.35 mg/mL and 0.28 mg/mL, respectively.
Compounds were ground into a fine powders using a mortar and pestle and added to a 25 mL glass Erlenmeyer flask with 5 mL of a 0.9% saline solution at pH 7.4. Approximately 20 mg of compound was added to each flask to ensure saturation. The flasks were then vigorously stirred using a magnetic stir bar at 25° C. for 48 hours. The samples were then filtered through a Whatman PVDF membrane (0.45 μm pore size) syringe filter. The concentration of compound in the supernatant was then measured using HPLC quantitation at the maximum absorption wavelength for each compound.

Mtb H37Rv [11] = assay: TB MIC - ITR (UIC), Institute for Tuberculosis Research; type: cell-based, Mycobacterium tuberculosis; settings: Mycobacterium tuberculosis, H37RV; Tables 1-4; read-out: TB MIC - ITR
[12] = tested on: Pseudomonas aeruginosa ATCC 27853; assay: Spectrum of antimicrobial activity; type: cell-based
Escherichia coli BAA 201 = assay: Spectrum of antimicrobial activity; type: cell-based
[13] = tested on: Acinetobacter baumannii ATCC 17978; assay: Spectrum of antimicrobial activity; type: cell-based
[14] = tested on: Escherichia coli ATCC 25922; assay: Spectrum of antimicrobial activity; type: cell-based
[15] = tested on: Staphylococcus aureus HA-MRSA NRS 382; assay: Spectrum of antimicrobial activity; type: cell-based
[16] = tested on: Staphylococcus aureus ATCC 29213; assay: Spectrum of antimicrobial activity; type: cell-based
[17] = tested on: Enterococcus faecium ATCC 19434; assay: Spectrum of antimicrobial activity; type: cell-based
[18] = tested on: Acinetobacter baumannii BAA 1605; assay: Spectrum of antimicrobial activity; type: cell-based
[19] = tested on: Enterobacter aerogenes SRI Collection; assay: Spectrum of antimicrobial activity; type: cell-based
[20] = tested on: Enterobacter aerogenes ATCC 29751; assay: Spectrum of antimicrobial activity; type: cell-based
[21] = tested on: Klebsiella pneumoniae ATCC 43816; assay: Spectrum of antimicrobial activity; type: cell-based
[22] = tested on: Mycobacterium smegmatis ATCC 10143; assay: Spectrum of antimicrobial activity; type: cell-based
[23] = tested on: Salmonella typhimurium -Hisg46 SRI Collection; assay: Spectrum of antimicrobial activity; type: cell-based
[24] = tested on: Escherichia coli pKM101 SRI Collection; assay: Spectrum of antimicrobial activity; type: cell-based
Vero cells = assay: Cytotoxicity against Vero cells (Cell Titer-Glo); settings: 72 h; Tables 1-4 and text

CN(Cc1ccc(F)cc1)c1n[n+]([O-])c2cc3c(cc2[n+]1[O-])CCC3 [Cmpd 14] gave a viability at 0.01 ug/ml [1] of 112%, a viability at 0.1 ug/ml [1] of 82% and a viability at 1 ug/ml [1] of 1%. For the same compound, the MIC (OFX-R) was 0.098 µg/mL (≈ 0.288 µM), the MIC (RMP-R) was 0.049 µg/mL (≈ 0.144 µM) and the MIC (INH-r) was 0.098 µg/mL (≈ 0.288 µM). The MIC (H37Rv) was 0.195 µg/mL (≈ 0.573 µM).
With [O-][n+]1nc(N2CCC(c3ccccc3Cl)C2)[n+]([O-])c2cc3c(cc21)CCC3 (centres unmarked) [Cmpd 15] the viability at 0.01 ug/ml [1] was 102%, the viability at 0.1 ug/ml [1] was 75% and the viability at 1 ug/ml [1] was 58%. For the same compound, the MIC (OFX-R) was 0.024 µg/mL (≈ 0.0627 µM), the MIC (RMP-R) was 0.098 µg/mL (≈ 0.256 µM) and the MIC (INH-r) was 0.098 µg/mL (≈ 0.256 µM). For the same compound, the MIC (H37Rv) was 0.098 µg/mL (≈ 0.256 µM).
With COc1ccc(OC)c(C2CCN(c3n[n+]([O-])c4cc5c(cc4[n+]3[O-])CCC5)C2)c1 (centres unmarked) [Cmpd 16] the viability at 0.01 ug/ml [1] was 122%, the viability at 0.1 ug/ml [1] was 97% and the viability at 1 ug/ml [1] was 108%. It also gave an MIC (OFX-R) of 0.098 µg/mL (≈ 0.24 µM), an MIC (RMP-R) of 0.195 µg/mL (≈ 0.477 µM) and an MIC (INH-r) of 0.098 µg/mL (≈ 0.24 µM). It also gave an MIC (H37Rv) of 0.195 µg/mL (≈ 0.477 µM).
In the case of [O-][n+]1nc(N2CCC(c3ccc(F)cc3)C2)[n+]([O-])c2cc3c(cc21)CCC3 (centres unmarked) [Cmpd 17], the viability at 0.01 ug/ml [1] was 104%, the viability at 0.1 ug/ml [1] was 82% and the viability at 1 ug/ml [1] was 69%. It also gave an MIC (OFX-R) of 0.049 µg/mL (≈ 0.134 µM), an MIC (RMP-R) of 0.027 µg/mL (≈ 0.0737 µM) and an MIC (INH-r) of 0.049 µg/mL (≈ 0.134 µM). For the same compound, the MIC (H37Rv) was 0.098 µg/mL (≈ 0.267 µM).
In the case of COc1cccc(C2CCN(c3n[n+]([O-])c4cc5c(cc4[n+]3[O-])CCC5)C2)c1OC (centres unmarked) [Cmpd 18], the viability at 0.01 ug/ml [1] was 85%, the viability at 0.1 ug/ml [1] was 55% and the viability at 1 ug/ml [1] was 33%. The MIC (OFX-R) was 0.049 µg/mL (≈ 0.12 µM), the MIC (RMP-R) was 0.391 µg/mL (≈ 0.957 µM) and the MIC (INH-r) was 0.195 µg/mL (≈ 0.477 µM). It also gave an MIC (H37Rv) of 0.391 µg/mL (≈ 0.957 µM).
In the case of CCNc1n[n+]([O-])c2ccccc2[n+]1[O-] [Compound 8a, 3-(ethylamino)benzo[e][1,2,4]triazine 1,4-dioxide], the “Antimicrobial activity, Mtb H37Rv” value (Mtb H37Rv [2]; source CSU, SI Table 1) was 1.2 µg/mL, the “Antimicrobial activity, Enterococcus fecalis” value [3] was 32 µg/mL and the “Antimicrobial activity, Moraxella catarrhalis” value [4] was 32 µg/mL. The “susceptibility of M. abscessus” value [5] was “resistant”, the “Antimicrobial activity, Mycobacterium abscessus” value ([5]; ATCC 19977) was greater than 32 µg/mL and the AUCinf ([6]; female mice, oral) was 6937 ng·h/mL. For the same compound, the AUClast ([6]; female mice, oral) was 6578 ng·h/mL, the Cmax ([6]; female mice, oral) was 9540 ng/mL and the Tmax ([6]; female mice, oral) was 4.8 min. The t1/2 ([6]; female mice, oral) was 90 min, the “plasma drug concentration at the 24 hr time point” value ([6]; mouse, in vivo, po) was “lower than the limit of quantitation” and the MIC (NRP Mtb H37Rv cells) was 0.37 µg/mL (≈ 1.79 µM). For the same compound, the “Antimicrobial activity, Salmonella choleraesuis” value [7] was 32 µg/mL, the “Antimicrobial activity, Klebsiella pneumoniae” value [8] was greater than 32 µg/mL and the “Antimicrobial activity, Enterococcus fecalis” value [9] was 16 µg/mL. For the same compound, the solubility [10] was 1350 µg/mL (≈ 6550 µM), the MIC (Mtb H37Rv [11]) was 0.57 µg/mL (≈ 2.76 µM) and the “Antimicrobial activity, Pseudomonas aeruginosa” value [12] was greater than 32 µg/mL. For the same compound, the “Antimicrobial activity, Escherichia coli” value (Escherichia coli BAA 201) was 16 µg/mL, the “Antimicrobial activity, Acinetobacter baumannii” value [13] was 32 µg/mL and the “Antimicrobial activity, Escherichia coli” value [14] was 16 µg/mL. For the same compound, the “Antimicrobial activity, Staphylococcus aureus HA-MRSA” value [15] was 16 to 32 µg/mL, the “Antimicrobial activity, Staphylococcus aureus” value [16] was greater than 32 µg/mL and the “Antimicrobial activity, Enterococcus faecium” value [17] was greater than 32 µg/mL. The “Antimicrobial activity, Acinetobacter baumannii” value [18] was greater than 32 µg/mL, the “Antimicrobial activity, Enterobacter aerogenes” value [19] was greater than 32 µg/mL and the “Antimicrobial activity, Enterobacter aerogenes” value [20] was greater than 32 µg/mL. The “Antimicrobial activity, Klebsiella pneumoniae” value [21] was greater than 32 µg/mL, the “Antimicrobial activity, Mycobacterium smegmatis” value [22] was 5.0 µg/mL and the “Antimicrobial activity, Salmonella typhimurium -Hisg46” value [23] was greater than 32 µg/mL. The “Antimicrobial activity, Escherichia coli pKM101” value [24] was 32 μg/mL.
For O=C(Cn1ccnc1[N+](=O)[O-])NCCO [Etanidazole, reference compound], the MIC (Mtb H37Rv [2]) was greater than 10 µg/mL, the MIC (NRP Mtb H37Rv cells; NRP Mtb, Tables 1-4 and text) was 26 µg/mL (≈ 121 µM) and the MIC (Mtb H37Rv [11]) was greater than 32 µg/mL. The “Vero Tox CC50” value (Vero cells) was greater than 16 µg/mL.
Compound NNC(=O)c1ccncc1 [INH, Isoniazid, reference compound] has an MIC (Mtb H37Rv [2]) of 0.06 µg/mL (≈ 0.438 µM), an MIC (NRP Mtb H37Rv cells; NRP Mtb, Tables 1-4 and text) greater than 20 µg/mL and an MIC (Mtb H37Rv [11]) of 0.091 µg/mL (≈ 0.664 µM). The “Vero Tox CC50” value (Vero cells) was greater than 50 µg/mL.
Compound Cc1ncc([N+](=O)[O-])n1CCO [Metronidazole, reference compound] has an MIC (Mtb H37Rv [2]) greater than 10 µg/mL, an MIC (NRP Mtb H37Rv cells; NRP Mtb, Tables 1-4 and text) of 11 µg/mL (≈ 64.3 µM) and an MIC (Mtb H37Rv [11]) greater than 32 µg/mL. The “Vero Tox CC50” value (Vero cells) was greater than 16 µg/mL.
Work on O=C1CN(/N=C/c2ccc([N+](=O)[O-])o2)C(=O)N1 [Nitrofurantoin, reference compound] yielded an MIC (Mtb H37Rv [2]) of 16 µg/mL (≈ 67.2 µM), an MIC (NRP Mtb H37Rv cells; NRP Mtb, Tables 1-4 and text) of 32 µg/mL (≈ 134 µM) and an MIC (Mtb H37Rv [11]) of 28 µg/mL (≈ 118 µM). For the same compound, the “Vero Tox CC50” value (Vero cells) was 23 µg/mL.
For Nc1n[n+]([O-])c2ccccc2[n+]1[O-] [TPZ, tirapazamine, reference compound], the MIC (Mtb H37Rv [2]) was 5 µg/mL (≈ 28.1 µM), the MIC (NRP Mtb H37Rv cells; NRP Mtb, Tables 1-4 and text) was 7.3 µg/mL (≈ 41 µM) and the MIC (Mtb H37Rv [11]) was 3.7 µg/mL (≈ 20.8 µM). For the same compound, the “Vero Tox CC50” value (Vero cells) was 8.0 µg/mL.
